Laboratory results from ChEMBL document CHEMBL5291721, “A preclinical secondary pharmacology resource illuminates target-adverse drug reaction associations of marketed drugs” (Nat Commun, 2023).

Assays:
[1] = molecular target: T1, Amine oxidase [flavin-containing] A (Homo sapiens, UniProt P21397); format: functional
T1 sequence (P21397 whole entry): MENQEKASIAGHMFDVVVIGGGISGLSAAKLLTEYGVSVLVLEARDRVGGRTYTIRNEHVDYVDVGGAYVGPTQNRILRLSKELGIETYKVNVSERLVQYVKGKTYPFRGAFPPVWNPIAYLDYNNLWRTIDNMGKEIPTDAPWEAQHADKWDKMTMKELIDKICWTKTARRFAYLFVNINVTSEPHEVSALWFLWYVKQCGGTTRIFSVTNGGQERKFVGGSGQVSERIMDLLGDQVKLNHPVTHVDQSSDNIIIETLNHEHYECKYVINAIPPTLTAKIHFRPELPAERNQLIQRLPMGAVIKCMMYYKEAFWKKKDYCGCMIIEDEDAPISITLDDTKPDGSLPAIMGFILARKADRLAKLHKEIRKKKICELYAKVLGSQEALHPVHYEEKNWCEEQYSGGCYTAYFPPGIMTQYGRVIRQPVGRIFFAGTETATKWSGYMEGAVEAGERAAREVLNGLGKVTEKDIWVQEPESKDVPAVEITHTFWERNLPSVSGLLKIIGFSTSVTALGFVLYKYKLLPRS

Thromboxane A2 receptor [2] = molecular target: T2, Thromboxane A2 receptor (Homo sapiens, UniProt P21731); format: functional, cell-based
T2 sequence (P21731 whole entry): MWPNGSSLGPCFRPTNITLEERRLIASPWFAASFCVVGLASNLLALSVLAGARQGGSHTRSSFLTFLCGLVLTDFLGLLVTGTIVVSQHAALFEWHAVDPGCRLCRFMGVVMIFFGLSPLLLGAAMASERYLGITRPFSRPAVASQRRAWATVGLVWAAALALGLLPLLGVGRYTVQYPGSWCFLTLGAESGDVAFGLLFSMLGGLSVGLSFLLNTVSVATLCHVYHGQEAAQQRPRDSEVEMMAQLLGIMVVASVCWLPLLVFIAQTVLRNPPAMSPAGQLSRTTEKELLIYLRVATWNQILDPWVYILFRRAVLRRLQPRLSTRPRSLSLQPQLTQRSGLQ

[3] = molecular target: Voltage-gated inwardly rectifying potassium channel KCNH2 (Homo sapiens, UniProt Q12809); format: functional; settings: read-out: AC50
Vasopressin V2 receptor = Vasopressin V2 receptor (Homo sapiens, UniProt P30518)
Melanocortin receptor 3 = Melanocortin receptor 3 (Homo sapiens, UniProt P41968)
Motilin receptor = Motilin receptor (Homo sapiens, UniProt O43193)
[4] = molecular target: 3',5'-cyclic-AMP phosphodiesterase 4D (Homo sapiens, UniProt Q08499); format: functional
[5] = molecular target: T3, Equilibrative nucleoside transporter 1 (Homo sapiens, UniProt Q99808)
T3 sequence (Q99808 whole entry): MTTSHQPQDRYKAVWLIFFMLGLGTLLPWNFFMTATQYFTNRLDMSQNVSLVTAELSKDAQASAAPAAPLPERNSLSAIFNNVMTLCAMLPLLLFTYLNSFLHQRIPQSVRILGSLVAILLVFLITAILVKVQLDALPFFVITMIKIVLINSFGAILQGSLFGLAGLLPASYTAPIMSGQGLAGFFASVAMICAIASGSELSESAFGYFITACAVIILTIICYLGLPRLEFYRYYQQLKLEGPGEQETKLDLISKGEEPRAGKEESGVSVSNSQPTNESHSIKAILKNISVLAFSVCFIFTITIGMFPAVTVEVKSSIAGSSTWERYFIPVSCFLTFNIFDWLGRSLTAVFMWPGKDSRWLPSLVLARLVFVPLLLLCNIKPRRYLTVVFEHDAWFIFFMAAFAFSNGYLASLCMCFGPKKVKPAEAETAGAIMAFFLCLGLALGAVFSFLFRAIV

Thromboxane A2 receptor [6] = molecular target: T2, Thromboxane A2 receptor
Adenosine receptor A3 = molecular target: T4, Adenosine receptor A3 (Homo sapiens, UniProt P0DMS8)
T4 sequence (P0DMS8 whole entry): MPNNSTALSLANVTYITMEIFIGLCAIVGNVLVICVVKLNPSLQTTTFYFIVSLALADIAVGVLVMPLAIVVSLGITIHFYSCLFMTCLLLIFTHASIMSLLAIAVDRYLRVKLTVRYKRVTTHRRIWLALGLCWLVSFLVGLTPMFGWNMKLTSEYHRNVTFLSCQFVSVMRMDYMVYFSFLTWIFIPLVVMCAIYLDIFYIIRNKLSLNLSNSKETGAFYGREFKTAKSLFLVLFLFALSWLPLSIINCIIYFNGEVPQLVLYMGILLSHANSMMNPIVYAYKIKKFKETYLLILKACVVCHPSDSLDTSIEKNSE

[7] = molecular target: Neuronal acetylcholine receptor subunit alpha-4 (Homo sapiens, UniProt P43681)
Cannabinoid receptor 1 = Cannabinoid receptor 1 (Homo sapiens, UniProt P21554); format: functional, cell-based
[8] = molecular target: T5, 5-hydroxytryptamine receptor 3A (Homo sapiens, UniProt P46098); format: functional
T5 sequence (P46098 whole entry): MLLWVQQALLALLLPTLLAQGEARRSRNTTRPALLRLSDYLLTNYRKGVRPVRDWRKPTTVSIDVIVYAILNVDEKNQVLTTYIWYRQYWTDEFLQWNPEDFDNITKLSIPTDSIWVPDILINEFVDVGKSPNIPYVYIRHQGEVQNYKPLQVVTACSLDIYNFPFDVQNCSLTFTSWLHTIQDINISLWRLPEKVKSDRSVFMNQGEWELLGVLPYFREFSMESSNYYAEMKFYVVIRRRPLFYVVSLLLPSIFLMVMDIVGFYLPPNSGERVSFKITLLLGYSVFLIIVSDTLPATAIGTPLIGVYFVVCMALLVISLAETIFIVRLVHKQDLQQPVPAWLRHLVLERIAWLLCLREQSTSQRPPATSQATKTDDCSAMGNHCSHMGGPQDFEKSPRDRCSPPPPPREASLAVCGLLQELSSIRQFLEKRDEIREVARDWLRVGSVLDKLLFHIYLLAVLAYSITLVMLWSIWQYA

D(1A) dopamine receptor = D(1A) dopamine receptor (Homo sapiens, UniProt P21728); format: functional, cell-based
[9] = molecular target: 5-hydroxytryptamine receptor 2A (Homo sapiens, UniProt P28223); format: functional, cell-based
[10] = molecular target: Sodium-dependent dopamine transporter (Homo sapiens, UniProt Q01959)
Note: assay procedure not described here.

Chain of Voltage-gated inwardly rectifying potassium channel KCNH2 (Q12809 whole entry): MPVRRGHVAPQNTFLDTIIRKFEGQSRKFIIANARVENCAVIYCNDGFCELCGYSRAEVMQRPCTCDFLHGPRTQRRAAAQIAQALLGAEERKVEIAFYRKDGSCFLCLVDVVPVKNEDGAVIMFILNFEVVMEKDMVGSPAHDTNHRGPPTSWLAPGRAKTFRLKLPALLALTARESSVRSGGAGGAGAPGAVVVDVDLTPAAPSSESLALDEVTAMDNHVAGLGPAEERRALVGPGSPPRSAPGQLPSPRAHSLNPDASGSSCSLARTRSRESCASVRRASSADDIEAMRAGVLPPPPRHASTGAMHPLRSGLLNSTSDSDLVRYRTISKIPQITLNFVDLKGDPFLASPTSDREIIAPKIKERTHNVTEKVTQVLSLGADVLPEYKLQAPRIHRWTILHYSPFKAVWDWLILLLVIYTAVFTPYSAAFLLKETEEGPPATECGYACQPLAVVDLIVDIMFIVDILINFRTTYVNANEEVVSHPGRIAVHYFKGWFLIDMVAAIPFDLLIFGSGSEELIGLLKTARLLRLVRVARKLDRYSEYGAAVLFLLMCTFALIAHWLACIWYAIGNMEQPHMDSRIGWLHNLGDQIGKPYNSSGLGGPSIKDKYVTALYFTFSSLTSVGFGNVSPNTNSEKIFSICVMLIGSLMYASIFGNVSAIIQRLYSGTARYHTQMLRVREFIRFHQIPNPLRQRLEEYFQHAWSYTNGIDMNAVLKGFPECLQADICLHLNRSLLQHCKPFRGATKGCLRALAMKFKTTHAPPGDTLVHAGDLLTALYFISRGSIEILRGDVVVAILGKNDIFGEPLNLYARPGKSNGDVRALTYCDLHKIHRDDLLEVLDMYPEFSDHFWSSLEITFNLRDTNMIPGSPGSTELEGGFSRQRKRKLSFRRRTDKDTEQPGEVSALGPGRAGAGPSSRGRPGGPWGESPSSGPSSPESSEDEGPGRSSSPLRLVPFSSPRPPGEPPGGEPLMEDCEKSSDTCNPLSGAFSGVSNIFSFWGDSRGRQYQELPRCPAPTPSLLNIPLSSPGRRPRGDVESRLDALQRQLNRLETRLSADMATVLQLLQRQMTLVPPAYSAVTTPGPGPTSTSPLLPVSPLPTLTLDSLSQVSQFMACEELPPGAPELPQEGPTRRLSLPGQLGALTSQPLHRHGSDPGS
Chain of Melanocortin receptor 3 (P41968 whole entry): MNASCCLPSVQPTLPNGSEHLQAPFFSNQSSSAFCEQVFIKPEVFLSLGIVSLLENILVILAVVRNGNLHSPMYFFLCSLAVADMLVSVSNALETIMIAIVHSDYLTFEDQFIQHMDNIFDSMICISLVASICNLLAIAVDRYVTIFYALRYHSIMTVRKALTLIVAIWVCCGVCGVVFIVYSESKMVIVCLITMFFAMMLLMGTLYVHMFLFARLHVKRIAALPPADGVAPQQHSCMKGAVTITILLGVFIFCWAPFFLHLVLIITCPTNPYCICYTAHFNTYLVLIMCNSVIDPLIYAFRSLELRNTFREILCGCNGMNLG
Chain of 3',5'-cyclic-AMP phosphodiesterase 4D (Q08499 whole entry): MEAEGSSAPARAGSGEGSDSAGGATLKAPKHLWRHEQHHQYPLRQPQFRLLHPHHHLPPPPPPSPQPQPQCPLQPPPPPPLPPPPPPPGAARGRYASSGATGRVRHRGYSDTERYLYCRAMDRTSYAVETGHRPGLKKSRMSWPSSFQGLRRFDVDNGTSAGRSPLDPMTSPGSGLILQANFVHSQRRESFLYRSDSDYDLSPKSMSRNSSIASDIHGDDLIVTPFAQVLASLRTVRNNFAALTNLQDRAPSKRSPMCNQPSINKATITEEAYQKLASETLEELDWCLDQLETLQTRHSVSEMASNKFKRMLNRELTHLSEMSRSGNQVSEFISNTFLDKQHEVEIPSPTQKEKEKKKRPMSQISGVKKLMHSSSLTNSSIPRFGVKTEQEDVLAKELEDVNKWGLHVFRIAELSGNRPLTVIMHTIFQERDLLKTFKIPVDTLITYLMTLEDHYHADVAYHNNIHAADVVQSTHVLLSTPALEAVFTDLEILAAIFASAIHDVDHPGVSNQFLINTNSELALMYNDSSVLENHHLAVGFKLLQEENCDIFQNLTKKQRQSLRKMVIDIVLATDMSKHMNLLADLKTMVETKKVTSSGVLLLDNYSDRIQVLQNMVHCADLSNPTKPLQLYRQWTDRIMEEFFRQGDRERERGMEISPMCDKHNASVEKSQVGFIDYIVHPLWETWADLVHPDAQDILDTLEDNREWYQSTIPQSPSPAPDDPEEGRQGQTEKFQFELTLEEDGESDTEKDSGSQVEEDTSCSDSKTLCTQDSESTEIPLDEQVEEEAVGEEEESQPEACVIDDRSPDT
Chain of Motilin receptor (O43193 whole entry): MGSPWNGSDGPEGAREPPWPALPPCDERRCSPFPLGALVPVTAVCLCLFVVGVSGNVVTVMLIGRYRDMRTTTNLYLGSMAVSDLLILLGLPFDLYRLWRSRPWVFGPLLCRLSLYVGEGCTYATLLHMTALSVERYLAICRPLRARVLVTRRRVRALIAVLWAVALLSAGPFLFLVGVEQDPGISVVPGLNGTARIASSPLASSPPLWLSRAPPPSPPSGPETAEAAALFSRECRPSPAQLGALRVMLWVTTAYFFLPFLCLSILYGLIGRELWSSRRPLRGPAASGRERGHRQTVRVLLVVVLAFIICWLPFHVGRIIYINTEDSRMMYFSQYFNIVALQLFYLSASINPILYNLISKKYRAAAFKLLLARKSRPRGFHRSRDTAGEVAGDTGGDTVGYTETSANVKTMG
Chain of Vasopressin V2 receptor (P30518 whole entry): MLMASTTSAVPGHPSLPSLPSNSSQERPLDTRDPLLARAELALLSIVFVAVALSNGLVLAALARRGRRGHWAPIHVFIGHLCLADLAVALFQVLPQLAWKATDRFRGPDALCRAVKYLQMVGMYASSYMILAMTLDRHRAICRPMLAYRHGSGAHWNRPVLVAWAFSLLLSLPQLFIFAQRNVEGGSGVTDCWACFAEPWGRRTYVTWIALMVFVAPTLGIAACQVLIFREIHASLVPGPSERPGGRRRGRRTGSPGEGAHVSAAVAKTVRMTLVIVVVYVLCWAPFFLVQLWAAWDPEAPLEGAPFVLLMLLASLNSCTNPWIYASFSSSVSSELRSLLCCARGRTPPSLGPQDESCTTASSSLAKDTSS
Chain of Cannabinoid receptor 1 (P21554 whole entry): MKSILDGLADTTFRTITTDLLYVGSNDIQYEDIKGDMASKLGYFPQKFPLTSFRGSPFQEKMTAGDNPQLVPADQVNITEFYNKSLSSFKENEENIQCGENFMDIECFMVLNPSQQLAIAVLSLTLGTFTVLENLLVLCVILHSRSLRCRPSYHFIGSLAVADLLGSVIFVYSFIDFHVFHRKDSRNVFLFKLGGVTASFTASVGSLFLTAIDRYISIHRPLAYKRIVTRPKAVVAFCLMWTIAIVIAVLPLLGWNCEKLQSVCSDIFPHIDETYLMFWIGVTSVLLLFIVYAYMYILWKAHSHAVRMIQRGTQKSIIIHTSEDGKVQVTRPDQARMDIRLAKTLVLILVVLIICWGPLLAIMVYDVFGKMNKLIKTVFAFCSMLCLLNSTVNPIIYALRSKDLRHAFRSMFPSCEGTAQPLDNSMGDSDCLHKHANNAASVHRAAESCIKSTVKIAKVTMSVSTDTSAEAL
Chain of D(1A) dopamine receptor (P21728 whole entry): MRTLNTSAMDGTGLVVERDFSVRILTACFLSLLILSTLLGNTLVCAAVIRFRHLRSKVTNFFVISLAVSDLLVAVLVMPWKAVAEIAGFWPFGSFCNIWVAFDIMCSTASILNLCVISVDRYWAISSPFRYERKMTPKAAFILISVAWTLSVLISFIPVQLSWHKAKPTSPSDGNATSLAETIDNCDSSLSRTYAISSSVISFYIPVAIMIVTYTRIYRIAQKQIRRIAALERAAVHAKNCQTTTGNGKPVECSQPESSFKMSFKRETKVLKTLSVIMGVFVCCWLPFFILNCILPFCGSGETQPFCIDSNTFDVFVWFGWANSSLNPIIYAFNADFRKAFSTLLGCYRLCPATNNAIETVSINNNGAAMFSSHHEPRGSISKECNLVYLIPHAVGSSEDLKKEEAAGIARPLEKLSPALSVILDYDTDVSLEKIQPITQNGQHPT
Chain of Neuronal acetylcholine receptor subunit alpha-4 (P43681 whole entry): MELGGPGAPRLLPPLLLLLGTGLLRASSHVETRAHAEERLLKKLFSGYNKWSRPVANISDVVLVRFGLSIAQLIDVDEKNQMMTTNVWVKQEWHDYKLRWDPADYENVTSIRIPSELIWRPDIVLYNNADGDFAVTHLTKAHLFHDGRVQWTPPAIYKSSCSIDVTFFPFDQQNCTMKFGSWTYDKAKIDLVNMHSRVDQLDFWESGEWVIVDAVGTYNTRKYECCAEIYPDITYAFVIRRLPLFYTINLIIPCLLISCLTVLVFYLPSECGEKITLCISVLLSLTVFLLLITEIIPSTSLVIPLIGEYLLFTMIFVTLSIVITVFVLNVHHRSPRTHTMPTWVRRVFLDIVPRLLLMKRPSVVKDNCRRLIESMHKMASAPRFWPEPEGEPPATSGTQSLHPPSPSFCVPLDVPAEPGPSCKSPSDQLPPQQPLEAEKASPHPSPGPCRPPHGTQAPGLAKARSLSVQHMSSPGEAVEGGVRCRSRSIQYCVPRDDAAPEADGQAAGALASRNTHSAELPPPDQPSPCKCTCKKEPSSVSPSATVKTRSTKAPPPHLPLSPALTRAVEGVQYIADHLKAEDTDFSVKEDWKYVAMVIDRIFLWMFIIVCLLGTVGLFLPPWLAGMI

| SMILES | AC50 [1] | AC50 (Thromboxane A2 receptor [2]) | AC50 [3] | also measured |
| --- | --- | --- | --- | --- |
| C[N+](C)(C)CCO [CHOLINE] | > 30 µM | > 30 µM | – | – |
| COC(c1ccccc1)(c1ccccc1)[C@H](Oc1nc(C)cc(C)n1)C(=O)O [AMBRISENTAN] | > 30 µM | > 30 µM | > 30 µM | – |
| OCCN1C[C@H](O)[C@@H](O)[C@H](O)[C@H]1CO [MIGLITOL] | > 30 µM | > 30 µM | > 30 µM | – |
| CCCCCCOc1nsnc1C1=CCCN(C)C1 [XANOMELINE] | – | > 30 µM | 1.3 µM | – |
| COCc1c(C(C)C)nc(C(C)C)c(/C=C/[C@@H](O)C[C@@H](O)CC(=O)O)c1-c1ccc(F)cc1 [CERIVASTATIN] | > 30 µM | > 30 µM | – | – |
| C[N+]1(C)CCC(OC(=O)C(O)(c2ccccc2)C2CCCC2)C1 (stereo unspecified) [GLYCOPYRRONIUM BROMIDE] | – | > 30 µM | – | AC50 (Vasopressin V2 receptor): > 30 µM; AC50 (Melanocortin receptor 3): > 30 µM; AC50 (Motilin receptor): > 10 µM; AC50 [4]: > 30 µM; AC50 [5]: > 30 µM; AC50 (Thromboxane A2 receptor [6]): > 30 µM |
| COc1cc(NC(C)CCCN)c2ncccc2c1 (stereo unspecified) [PRIMAQUINE] | – | > 30 µM | 20 µM | AC50 (Vasopressin V2 receptor): > 30 µM; AC50 (Melanocortin receptor 3): > 30 µM; AC50 (Motilin receptor): > 30 µM; AC50 [4]: 12 µM; AC50 (Thromboxane A2 receptor [6]): > 30 µM |
| CN(C)CC(c1ccc(O)cc1)C1(O)CCCCC1 (stereo unspecified) [DESVENLAFAXINE] | > 30 µM | > 30 µM | > 30 µM | – |
| CN(C)CCN1C(=O)c2ccccc2N(C)c2ccccc21 [DIBENZEPIN] | > 30 µM | > 30 µM | > 30 µM | – |
| CCc1oc2ccccc2c1C(=O)c1cc(I)c(O)c(I)c1 [BENZIODARONE] | > 30 µM | 29 µM | – | – |
| CN(C)CCn1nnnc1SCC1=C(C(=O)O)N2C(=O)[C@@H](NC(=O)Cc3csc(N)n3)[C@H]2SC1 [CEFOTIAM] | > 30 µM | > 30 µM | – | – |
| CN(C)S(=O)(=O)c1ccc2c(c1)N(CCCN1CCC(CCO)CC1)c1ccccc1S2 [PIPOTIAZINE] | > 30 µM | > 30 µM | 0.39 µM | – |
| CC(C)(S)[C@@H](N)C(=O)O [PENICILLAMINE] | > 30 µM | > 30 µM | > 30 µM | – |
| CC(C)Nc1ncccn1 [ISAXONINE] | > 30 µM | > 30 µM | > 30 µM | – |
| CC1=C(C(=O)O)N2C(=O)[C@@H](NC(=O)[C@H](N)c3ccccc3)[C@H]2SC1 [CEPHALEXIN ANHYDROUS] | – | – | – | AC50 (Adenosine receptor A3): > 30 µM; AC50 (Vasopressin V2 receptor): > 30 µM; AC50 [7]: > 10 µM; AC50 (Cannabinoid receptor 1): > 30 µM; AC50 [8]: > 30 µM; AC50 (Melanocortin receptor 3): > 30 µM; AC50 (Motilin receptor): > 10 µM; AC50 [4]: > 30 µM; AC50 [5]: > 30 µM; AC50 (Thromboxane A2 receptor [6]): > 30 µM |
| CC(=O)N[C@@H]1[C@@H](O)[C@H](O)[C@@H](CO)O[C@H]1O [N-ACETYLGLUCOSAMINE] | > 30 µM | > 30 µM | > 30 µM | – |

| SMILES | AC50 [1] | AC50 (Thromboxane A2 receptor [2]) | AC50 [3] | also measured |
| --- | --- | --- | --- | --- |
| O=C(Cc1ccc(-c2ccccc2)cc1)Nc1ccccn1 [DIFENPIRAMIDE] | > 30 µM | > 30 µM | > 30 µM | AC50 (Cannabinoid receptor 1): > 30 µM; AC50 (D(1A) dopamine receptor): > 30 µM; AC50 [9]: > 30 µM; AC50 [8]: > 30 µM; AC50 [4]: > 30 µM |
| CCOC(=O)[C@H](CCc1ccccc1)N[C@@H](C)C(=O)N1[C@H](C(=O)O)C[C@H]2CCCC[C@@H]21 [TRANDOLAPRIL] | > 30 µM | > 30 µM | > 30 µM | – |
| CCC1=C(C)CN(C(=O)NCCc2ccc(S(=O)(=O)NC(=O)N[C@H]3CC[C@H](C)CC3)cc2)C1=O [GLIMEPIRIDE] | > 30 µM | > 30 µM | > 30 µM | – |
| O=P1(NCCCl)OCCCN1CCCl (stereo unspecified) [IFOSFAMIDE] | – | – | > 30 µM | AC50 (Adenosine receptor A3): > 30 µM; AC50 (Vasopressin V2 receptor): > 30 µM; AC50 [7]: > 30 µM; AC50 (D(1A) dopamine receptor): > 30 µM; AC50 [8]: > 30 µM; AC50 (Melanocortin receptor 3): > 30 µM; AC50 (Motilin receptor): > 30 µM; AC50 [4]: > 30 µM; AC50 [5]: > 30 µM; AC50 (Thromboxane A2 receptor [6]): > 30 µM; AC50 [10]: > 30 µM |
| CC(C)(C)NC[C@H](O)COc1ccccc1C1CCCC1 [PENBUTOLOL] | > 30 µM | > 30 µM | 11 µM | – |
| N[C@H](C(=O)O)[C@H](O)c1ccc(O)c(O)c1 [DROXIDOPA] | > 30 µM | > 30 µM | > 30 µM | – |
| CCC(=O)NCC[C@@H]1CCc2ccc3c(c21)CCO3 [RAMELTEON] | > 30 µM | > 30 µM | – | – |
| CN(C)[C@@H](c1cccc(O)c1)[C@H]1CCCC[C@H]1O [CIRAMADOL] | > 30 µM | > 30 µM | > 30 µM | – |
| O=C(CCNNC(=O)c1ccncc1)NCc1ccccc1 [NIALAMIDE] | > 30 µM | > 30 µM | > 30 µM | – |
| O=C(O)c1cc(O)ccc1O [GENTISIC ACID] | > 30 µM | > 30 µM | > 30 µM | – |
| Cc1cc(C#N)cc(C)c1Oc1nc(Nc2ccc(C#N)cc2)nc(N)c1Br [ETRAVIRINE] | > 30 µM | > 10 µM | – | – |
| C[C@]12CC[C@@H]3c4ccc(O)cc4CC[C@H]3[C@@H]1C[C@@H](O)[C@@H]2O [ESTRIOL] | > 30 µM | > 30 µM | > 30 µM | – |
| Oc1c(Cl)cc(Cl)c2cccnc12 [CHLOROXINE] | > 30 µM | > 30 µM | > 30 µM | – |
| CC[N+]1(C)[C@@H]2CC(OC(=O)[C@H](CO)c3ccccc3)C[C@H]1[C@@H]1O[C@@H]12 (stereo partly specified) [OXITROPIUM] | > 30 µM | > 30 µM | > 30 µM | – |
| C=C[C@H]1C[N@@]2CC[C@H]1C[C@H]2[C@H](O)c1ccnc2ccc(OC)cc12 [QUININE] | > 30 µM | > 30 µM | – | – |
| N[C@@H](C(=O)N[C@@H]1C(=O)N2C(C(=O)O)=C(Cl)CC[C@H]12)c1ccccc1 [LORACARBEF ANHYDROUS] | > 30 µM | > 30 µM | – | – |
